The values below come from patent US20150191459A1, “CATHEPSIN INHIBITORS” (ViroBay, Inc., priority 2013, published 2015).

A value given as a limit tells only on which side of the number the result lay.

The target of this assay is Human cathepsin B (Homo sapiens, UniProt P07858). Nature of the assay: Cathepsin B Assay. Conditions: apparent inhibition constant; Boc-Leu-Arg-Arg-AMC substrate; pH 6; 30 minutes pre-incubation; read-out: cat B Ki. It is filed as biochemical. The protocol: Solutions of test compounds in varying concentrations were prepared in 10 μL of dimethyl sulfoxide (DMSO) and then diluted into assay buffer (40 μL, comprising: N,N-bis(2-hydroxyethyl)-2-aminoethanesulfonic acid (BES), 50 mM (pH 6); polyoxyethylenesorbitan monolaurate, 0.05%; and dithiothreitol (DTT), 2.5 mM). Human cathepsin B (0.025 pMoles in 25 μL of assay buffer) was added to the dilutions. The assay solutions were mixed for 5-10 seconds on a shaker plate, covered and incubated for 30 minutes at ambient temperature. Boc-Leu-Arg-Arg-AMC (20 μM in 1% DMSO) was added to the assay solutions and hydrolysis was followed spectrophotometrically at (λ 460 nm) for 5 minutes. Apparent inhibition constants (Ki) were calculated from the enzyme progress curves using standard mathematical models.
As to `N#CCNC(=O)[C@H](Cc1cc(I)c(O)c(I)c1)N[C@@H](c1ccc(Br)cc1)C(F)(F)F` [N-Cyanomethyl-2S-[2,2,2-trifluoro-1S-(4-bromophenyl)-ethylamino]-3-(3,5-diiodo-4-hydroxyphenyl)-propanamide], the Ki was determined as 3.5 nM.

Turning to `N#CC1(NC(=O)[C@H](Cc2cc(I)c(O)c(I)c2)N[C@@H](c2ccc(Br)cc2)C(F)(F)F)CC1` [N-(1-Cyanocyclopropyl)-2S-[2,2,2-trifluoro-1S-(4-bromophenyl)-ethylamino]-3-(3,5-diiodo-4-hydroxyphenyl)-propanamide], the Ki was 13 nM.

Turning to `N#CC1(NC(=O)[C@H](Cc2cc(Cl)c(O)c(Cl)c2)N[C@@H](c2ccc(F)cc2)C(F)(F)F)CC1` [N-(1-Cyanocyclopropyl)-2S-[2,2,2-trifluoro-1S-(4-fluorophenyl)-ethylamino]-3-(3,5-dichloro-4-hydroxyphenyl)-propanamide], the Ki was determined as 130 nM. The same measure for `CC[C@H](NC(=O)[C@H](Cc1cc(I)c(O)c(I)c1)N[C@@H](c1ccc(Br)cc1)C(F)(F)F)C(=O)C(=O)NC1CC1` [N-cyclopropyl-3S-{3-[3,5-diiodo-4-hydroxyphenyl)-2S-(2,2,2-trifluoro)-1S-(4-bromophenyl)ethylamino]propionylamino}-2-oxopentanamide]: 1.28 nM. The same measure for `CC[C@H](NC(=O)[C@H](Cc1cc(I)c(O)c(I)c1)N[C@@H](c1ccc(F)cc1)C(F)(F)F)C(=O)C(=O)NC1CC1` [N-cyclopropyl-3S-{3-[3,5-diiodo-4-hydroxyphenyl)-2S-(2,2,2-trifluoro)-1S-(4-fluorophenyl)ethylamino]propionylamino}-2-oxopentanamide]: 1.16 nM. Take `N#CC1(NC(=O)[C@H](Cc2cc(Cl)c(O)c(Cl)c2)N[C@@H](c2ccc(Br)cc2)C(F)(F)F)CC1` [N-(1-Cyanocyclopropyl)-2S-[2,2,2-trifluoro-1S-(4-bromophenyl)-ethylamino]-3-(3,5-dichloro-4-hydroxyphenyl)-propanamide]: the Ki amounted to 45 nM. In the case of `CC[C@H](NC(=O)[C@H](Cc1cc(Cl)c(O)c(Cl)c1)N[C@@H](c1ccc(F)cc1)C(F)(F)F)C(=O)C(=O)NC1CC1` [N-Cyclopropyl-3S-{3-[3,5-dichloro-4-hydroxyphenyl)-2S-(2,2,2-trifluoro)-1S-(4-fluorophenyl)ethylamino]propionylamino}-2-oxopentanamide], the Ki was at most 1 nM.

In the case of `CC[C@H](NC(=O)[C@H](Cc1cc(Cl)c(O)c(Cl)c1)N[C@@H](c1ccc(Br)cc1)C(F)(F)F)C(=O)C(=O)NC1CC1` [N-cyclopropyl-3S-{3-[3,5-dichloro-4-hydroxyphenyl)-2S-(2,2,2-trifluoro)-1S-(4-bromophenyl)ethylamino]propionylamino}-2-oxopentanamide], the Ki was 1.53 nM.
